Data as given in publication PMC8371461 (Frontiers in Pharmacology, 2021).

Tests used:
Assay in all cases: kinome scan
[1] = target: T1, ABL1-nonphosphorylated (Homo sapiens, UniProt P00519); format: binding; details: 10 µM
T1 construct: purchased DiscoverX (KINOMEscan)

[2] = target: T2, AMPK-alpha1 (Homo sapiens, UniProt Q13131); format: binding; details: 10 µM
T2 construct: purchased DiscoverX (KINOMEscan)

[3] = target: T3, ASK2 (Homo sapiens, UniProt O95382); format: binding; details: 10 µM
T3 construct: purchased DiscoverX (KINOMEscan)

[4] = target: T4, BMPR1A (Homo sapiens, UniProt P36894); format: binding; details: 10 µM
T4 construct: purchased DiscoverX (KINOMEscan)

[5] = target: T5, CDK8 (Homo sapiens, UniProt P49336); format: binding; details: 10 µM
T5 construct: purchased DiscoverX (KINOMEscan)

[6] = target: T6, CDKL3 (Homo sapiens, UniProt Q8IVW4); format: binding; details: 10 µM
T6 construct: purchased DiscoverX (KINOMEscan)

[7] = target: T7, CDKL5 (Homo sapiens, UniProt O76039); format: binding; details: 10 µM
T7 construct: purchased DiscoverX (KINOMEscan)

[8] = target: T8, CHEK2 (Homo sapiens, UniProt O96017); format: binding; details: 10 µM
T8 construct: purchased DiscoverX (KINOMEscan)

[9] = target: T9, CSNK1A1L (Homo sapiens, UniProt Q8N752); format: binding; details: 10 µM
T9 construct: purchased DiscoverX (KINOMEscan)

[10] = target: T10, CSNK1G2 (Homo sapiens, UniProt P78368); format: binding; details: 10 µM
T10 construct: purchased DiscoverX (KINOMEscan)

[11] = target: T11, CTK (Homo sapiens, UniProt P42679); format: binding; details: 10 µM
T11 construct: purchased DiscoverX (KINOMEscan)

[12] = target: T12, DCAMKL1 (Homo sapiens, UniProt O15075); format: binding; details: 10 µM
T12 construct: purchased DiscoverX (KINOMEscan)

[13] = target: T13, DDR1 (Homo sapiens, UniProt Q08345); format: binding; details: 10 µM
T13 construct: purchased DiscoverX (KINOMEscan)

[14] = target: T14, EGFR(L747-E749delA750P) (Homo sapiens, UniProt P00533, A750P/DEL747-749); format: binding; details: 10 µM
T14 construct: purchased DiscoverX (KINOMEscan)

[15] = target: T15, EGFR(L858RT790M) (Homo sapiens, UniProt P00533, L858R/T790M); format: binding; details: 10 µM
T15 construct: purchased DiscoverX (KINOMEscan)

[16] = target: T16, EIF2AK1 (Homo sapiens, UniProt Q9BQI3); format: binding; details: 10 µM
T16 construct: purchased DiscoverX (KINOMEscan)

[17] = target: T17, EPHB4 (Homo sapiens, UniProt P54760); format: binding; details: 10 µM
T17 construct: purchased DiscoverX (KINOMEscan)
T17 sequence (P54760 16-987): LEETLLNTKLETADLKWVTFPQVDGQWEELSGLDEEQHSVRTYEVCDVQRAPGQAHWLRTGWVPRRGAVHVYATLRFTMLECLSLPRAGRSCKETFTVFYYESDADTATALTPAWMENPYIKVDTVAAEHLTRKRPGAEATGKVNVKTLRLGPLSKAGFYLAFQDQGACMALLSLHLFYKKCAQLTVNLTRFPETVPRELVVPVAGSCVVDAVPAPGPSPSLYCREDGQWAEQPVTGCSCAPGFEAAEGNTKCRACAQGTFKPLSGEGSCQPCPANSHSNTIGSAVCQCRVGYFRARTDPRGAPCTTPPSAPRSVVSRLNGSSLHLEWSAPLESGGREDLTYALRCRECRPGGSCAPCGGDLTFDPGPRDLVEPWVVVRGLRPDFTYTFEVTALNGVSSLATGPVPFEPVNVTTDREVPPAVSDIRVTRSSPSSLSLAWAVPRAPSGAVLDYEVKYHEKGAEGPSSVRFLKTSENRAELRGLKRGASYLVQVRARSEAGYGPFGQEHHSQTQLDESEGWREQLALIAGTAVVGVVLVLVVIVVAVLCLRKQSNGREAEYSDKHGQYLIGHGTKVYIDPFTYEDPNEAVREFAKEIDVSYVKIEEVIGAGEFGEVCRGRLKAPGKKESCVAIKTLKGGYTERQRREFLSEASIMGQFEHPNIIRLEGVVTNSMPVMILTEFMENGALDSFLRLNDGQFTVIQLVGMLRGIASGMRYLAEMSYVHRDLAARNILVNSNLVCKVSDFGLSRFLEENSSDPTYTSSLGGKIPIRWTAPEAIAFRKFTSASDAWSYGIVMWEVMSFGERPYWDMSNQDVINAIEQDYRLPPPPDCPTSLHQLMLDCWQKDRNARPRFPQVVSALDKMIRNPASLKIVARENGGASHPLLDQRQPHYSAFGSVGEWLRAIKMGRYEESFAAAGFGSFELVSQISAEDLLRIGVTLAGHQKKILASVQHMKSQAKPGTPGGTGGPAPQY

[18] = target: T18, ERK4 (Homo sapiens, UniProt P31152); format: binding; details: 10 µM
T18 construct: purchased DiscoverX (KINOMEscan)

[19] = target: T19, FGR (Homo sapiens, UniProt P09769); format: binding; details: 10 µM
T19 construct: purchased DiscoverX (KINOMEscan)

[20] = target: T20, FLT1 (Homo sapiens, UniProt P17948); format: binding; details: 10 µM
T20 construct: purchased DiscoverX (KINOMEscan)

[21] = target: FLT3(ITD); format: binding, human; details: 10 µM
[22] = target: T21, GRK4 (Homo sapiens, UniProt P32298); format: binding; details: 10 µM
T21 construct: purchased DiscoverX (KINOMEscan)

[23] = target: T22, GSK3A (Homo sapiens, UniProt P49840); format: binding; details: 10 µM
T22 construct: purchased DiscoverX (KINOMEscan)

[24] = target: T23, INSR (Homo sapiens, UniProt P06213); format: binding; details: 10 µM
T23 construct: purchased DiscoverX (KINOMEscan)

[25] = target: T24, JAK3(JH1domain-catalytic) (Homo sapiens, UniProt P52333); format: binding; details: 10 µM
T24 construct: JAK3(JH1domain-catalytic); purchased DiscoverX (KINOMEscan)

[26] = target: T25, KIT(V559D) (Homo sapiens, UniProt P10721, V559D); format: binding
T25 construct: purchased DiscoverX (KINOMEscan)
T25 sequence (P10721 26-976 V559D): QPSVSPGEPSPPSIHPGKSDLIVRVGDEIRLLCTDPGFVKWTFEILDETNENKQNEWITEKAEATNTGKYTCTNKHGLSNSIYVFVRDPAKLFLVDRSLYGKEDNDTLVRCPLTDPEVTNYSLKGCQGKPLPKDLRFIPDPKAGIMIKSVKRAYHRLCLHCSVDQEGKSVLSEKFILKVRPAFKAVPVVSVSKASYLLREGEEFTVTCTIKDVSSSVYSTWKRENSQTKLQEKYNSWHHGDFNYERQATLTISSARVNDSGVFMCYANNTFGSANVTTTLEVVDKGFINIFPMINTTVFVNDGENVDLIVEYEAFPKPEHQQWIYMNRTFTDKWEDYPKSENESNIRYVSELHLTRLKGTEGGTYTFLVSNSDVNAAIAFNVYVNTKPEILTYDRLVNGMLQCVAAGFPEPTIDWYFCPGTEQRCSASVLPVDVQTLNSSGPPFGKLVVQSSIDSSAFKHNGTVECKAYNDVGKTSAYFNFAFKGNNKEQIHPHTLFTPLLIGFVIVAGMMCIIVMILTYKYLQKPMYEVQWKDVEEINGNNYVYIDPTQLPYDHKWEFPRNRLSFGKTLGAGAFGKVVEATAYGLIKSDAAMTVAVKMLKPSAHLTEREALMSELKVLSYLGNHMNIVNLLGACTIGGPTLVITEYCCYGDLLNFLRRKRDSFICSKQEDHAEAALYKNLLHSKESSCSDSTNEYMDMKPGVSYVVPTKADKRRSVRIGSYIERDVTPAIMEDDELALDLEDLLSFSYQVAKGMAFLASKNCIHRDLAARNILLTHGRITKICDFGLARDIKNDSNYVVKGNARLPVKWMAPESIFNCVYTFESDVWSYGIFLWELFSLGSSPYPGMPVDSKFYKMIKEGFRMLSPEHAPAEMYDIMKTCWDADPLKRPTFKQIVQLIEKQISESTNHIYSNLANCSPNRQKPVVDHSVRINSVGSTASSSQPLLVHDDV

[27] = target: T26, MAPKAPK2 (Homo sapiens, UniProt P49137); format: binding; details: 10 µM
T26 construct: purchased DiscoverX (KINOMEscan)

[28] = target: T27, MEK2 (Homo sapiens, UniProt P36507); format: binding; details: 10 µM
T27 construct: purchased DiscoverX (KINOMEscan)

[29] = target: T28, MLK2 (Homo sapiens, UniProt Q02779); format: binding; details: 10 µM
T28 construct: purchased DiscoverX (KINOMEscan)

[30] = target: T29, MYLK4 (Homo sapiens, UniProt Q86YV6); format: binding; details: 10 µM
T29 construct: purchased DiscoverX (KINOMEscan)

[31] = target: T30, NEK7 (Homo sapiens, UniProt Q8TDX7); format: binding; details: 10 µM
T30 construct: purchased DiscoverX (KINOMEscan)
T30 sequence (Q8TDX7 whole entry): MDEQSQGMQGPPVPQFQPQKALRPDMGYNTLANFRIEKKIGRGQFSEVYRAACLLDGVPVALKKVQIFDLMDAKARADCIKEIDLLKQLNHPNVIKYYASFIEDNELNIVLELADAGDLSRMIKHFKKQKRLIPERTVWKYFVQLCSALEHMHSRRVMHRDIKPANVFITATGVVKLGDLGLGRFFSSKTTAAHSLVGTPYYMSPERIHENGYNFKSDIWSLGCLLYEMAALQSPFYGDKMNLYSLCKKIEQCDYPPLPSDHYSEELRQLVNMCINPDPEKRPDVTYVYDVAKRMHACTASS

[32] = target: T31, p38-gamma (Homo sapiens, UniProt P53778); format: binding; details: 10 µM
T31 construct: purchased DiscoverX (KINOMEscan)

[33] = target: T32, PAK1 (Homo sapiens, UniProt Q13153); format: binding; details: 10 µM
T32 construct: purchased DiscoverX (KINOMEscan)

[34] = target: T33, PAK4 (Homo sapiens, UniProt O96013); format: binding; details: 10 µM
T33 construct: purchased DiscoverX (KINOMEscan)

[35] = target: T34, PIK3CA(H1047Y) (Homo sapiens, UniProt P42336, H1047Y); format: binding; details: 10 µM
T34 construct: purchased DiscoverX (KINOMEscan)

[36] = target: T35, PIK3CB (Homo sapiens, UniProt P42338); format: binding
T35 construct: purchased DiscoverX (KINOMEscan)
T35 sequence (P42338 whole entry): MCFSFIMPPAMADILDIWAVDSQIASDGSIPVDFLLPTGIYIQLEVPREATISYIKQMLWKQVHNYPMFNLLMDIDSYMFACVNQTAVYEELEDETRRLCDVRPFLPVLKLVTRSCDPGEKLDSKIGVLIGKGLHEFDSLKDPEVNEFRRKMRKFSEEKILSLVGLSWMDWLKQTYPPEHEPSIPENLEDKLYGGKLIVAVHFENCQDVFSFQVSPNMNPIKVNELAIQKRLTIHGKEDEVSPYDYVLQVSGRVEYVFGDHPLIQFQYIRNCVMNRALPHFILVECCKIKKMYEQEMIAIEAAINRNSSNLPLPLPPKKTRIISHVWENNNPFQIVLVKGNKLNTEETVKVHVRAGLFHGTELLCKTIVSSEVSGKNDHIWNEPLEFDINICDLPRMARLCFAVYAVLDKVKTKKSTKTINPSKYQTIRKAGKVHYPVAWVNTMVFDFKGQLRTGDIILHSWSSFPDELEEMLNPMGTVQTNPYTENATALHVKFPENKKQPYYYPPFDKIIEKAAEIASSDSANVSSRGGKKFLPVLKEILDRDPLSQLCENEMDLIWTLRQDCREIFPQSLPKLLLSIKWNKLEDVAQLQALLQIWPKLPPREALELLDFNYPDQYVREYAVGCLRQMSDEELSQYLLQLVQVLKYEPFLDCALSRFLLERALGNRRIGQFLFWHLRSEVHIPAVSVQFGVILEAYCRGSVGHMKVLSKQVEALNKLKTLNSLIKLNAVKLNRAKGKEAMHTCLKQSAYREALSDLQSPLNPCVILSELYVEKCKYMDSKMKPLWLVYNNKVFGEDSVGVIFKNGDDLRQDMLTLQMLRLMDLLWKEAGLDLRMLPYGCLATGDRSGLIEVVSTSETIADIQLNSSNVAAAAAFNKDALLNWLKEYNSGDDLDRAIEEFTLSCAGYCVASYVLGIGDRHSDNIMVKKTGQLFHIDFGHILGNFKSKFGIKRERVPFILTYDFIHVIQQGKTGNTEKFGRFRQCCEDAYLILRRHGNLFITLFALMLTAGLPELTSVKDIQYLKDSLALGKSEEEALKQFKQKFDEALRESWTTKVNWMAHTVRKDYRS

[37] = target: T36, PIP5K1C (Homo sapiens, UniProt O60331); format: binding; details: 10 µM
T36 construct: purchased DiscoverX (KINOMEscan)
T36 sequence (O60331 whole entry): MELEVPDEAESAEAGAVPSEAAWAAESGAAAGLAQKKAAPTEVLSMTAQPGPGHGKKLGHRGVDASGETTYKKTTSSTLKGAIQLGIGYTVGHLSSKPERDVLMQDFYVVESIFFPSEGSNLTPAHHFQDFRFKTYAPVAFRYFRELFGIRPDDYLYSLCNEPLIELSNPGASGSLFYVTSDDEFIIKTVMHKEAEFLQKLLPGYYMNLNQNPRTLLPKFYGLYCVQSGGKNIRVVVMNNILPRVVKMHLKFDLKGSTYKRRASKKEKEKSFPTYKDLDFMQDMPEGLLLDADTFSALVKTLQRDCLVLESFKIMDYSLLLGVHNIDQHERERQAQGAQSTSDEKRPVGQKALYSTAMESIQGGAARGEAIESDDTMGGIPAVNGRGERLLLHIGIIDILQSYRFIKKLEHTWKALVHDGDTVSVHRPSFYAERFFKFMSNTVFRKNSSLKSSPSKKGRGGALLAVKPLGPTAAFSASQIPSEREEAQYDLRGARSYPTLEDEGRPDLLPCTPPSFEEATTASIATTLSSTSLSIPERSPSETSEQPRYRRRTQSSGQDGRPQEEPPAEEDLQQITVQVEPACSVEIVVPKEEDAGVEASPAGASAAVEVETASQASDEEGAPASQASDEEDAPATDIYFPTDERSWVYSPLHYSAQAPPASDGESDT

[38] = target: T37, PKAC-beta (Homo sapiens, UniProt P22694); format: binding; details: 10 µM
T37 construct: purchased DiscoverX (KINOMEscan)

[39] = target: T38, PKN2 (Homo sapiens, UniProt Q16513); format: binding; details: 10 µM
T38 construct: purchased DiscoverX (KINOMEscan)

[40] = target: T39, PLK4 (Homo sapiens, UniProt O00444); format: binding; details: 10 µM
T39 construct: purchased DiscoverX (KINOMEscan)

[41] = target: T40, TRKC (Homo sapiens, UniProt Q16288); format: binding; details: 10 µM
T40 construct: purchased DiscoverX (KINOMEscan)

[42] = target: T41, ULK3 (Homo sapiens, UniProt Q6PHR2); format: binding; details: 10 µM
T41 construct: purchased DiscoverX (KINOMEscan)
T41 sequence (Q6PHR2 whole entry): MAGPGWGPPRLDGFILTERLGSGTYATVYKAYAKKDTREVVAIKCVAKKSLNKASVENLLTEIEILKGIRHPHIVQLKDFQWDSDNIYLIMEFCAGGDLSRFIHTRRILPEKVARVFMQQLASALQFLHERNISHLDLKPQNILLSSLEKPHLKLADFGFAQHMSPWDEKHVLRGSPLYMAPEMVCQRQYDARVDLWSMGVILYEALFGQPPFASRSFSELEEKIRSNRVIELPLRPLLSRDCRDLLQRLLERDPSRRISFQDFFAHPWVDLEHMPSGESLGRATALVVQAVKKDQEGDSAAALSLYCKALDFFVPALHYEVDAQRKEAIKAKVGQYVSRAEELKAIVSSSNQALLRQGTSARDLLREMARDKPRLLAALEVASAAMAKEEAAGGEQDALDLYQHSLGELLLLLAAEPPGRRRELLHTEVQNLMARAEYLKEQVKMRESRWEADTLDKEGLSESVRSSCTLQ

[43] = target: T42, VRK2 (Homo sapiens, UniProt Q86Y07); format: binding; details: 10 µM
T42 construct: purchased DiscoverX (KINOMEscan)
T42 sequence (Q86Y07 whole entry): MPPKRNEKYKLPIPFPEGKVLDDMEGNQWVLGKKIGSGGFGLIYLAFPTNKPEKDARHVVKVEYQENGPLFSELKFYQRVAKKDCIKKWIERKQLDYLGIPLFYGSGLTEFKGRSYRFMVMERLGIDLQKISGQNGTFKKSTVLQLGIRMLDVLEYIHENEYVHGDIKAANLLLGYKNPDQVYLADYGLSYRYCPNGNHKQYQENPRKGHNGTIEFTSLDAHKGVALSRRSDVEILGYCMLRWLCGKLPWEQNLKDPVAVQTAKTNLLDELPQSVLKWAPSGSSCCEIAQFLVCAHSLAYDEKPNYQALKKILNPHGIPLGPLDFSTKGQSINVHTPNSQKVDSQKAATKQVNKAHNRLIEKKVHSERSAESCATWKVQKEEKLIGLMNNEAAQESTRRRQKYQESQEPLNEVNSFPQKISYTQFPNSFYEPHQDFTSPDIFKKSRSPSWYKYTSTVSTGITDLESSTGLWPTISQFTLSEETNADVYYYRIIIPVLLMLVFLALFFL

`Nc1ccc(N=Nc2ccccc2)c(N)n1` [phenazopyridine, 2,6-diamino-3-(phenylazo)pyridine] was tested, and the kinase inhibition [1] was 86, the kinase inhibition [2] was 99 and the kinase inhibition [3] was 83. The kinase inhibition [4] was 98, the kinase inhibition [5] was 86 and the kinase inhibition [6] was 74. The kinase inhibition [7] was 100, the kinase inhibition [8] was 99 and the kinase inhibition [9] was 100. For the same compound, the kinase inhibition [10] was 82, the kinase inhibition [11] was 98 and the kinase inhibition [12] was 100. It also gave a kinase inhibition [13] of 96, a kinase inhibition [14] of 86 and a kinase inhibition [15] of 100. The kinase inhibition [16] was 100, the kinase inhibition [17] was 95 and the kinase inhibition [18] was 74. The “remaining binding (% of control)” value [19] was 87, the “remaining binding (% of control)” value [20] was 90 and the “remaining binding (% of control)” value [21] was 55. For the same compound, the kinase inhibition [22] was 95, the kinase inhibition [23] was 100 and the kinase inhibition [24] was 75. It also gave a kinase inhibition [25] of 100, a remaining activity ([26]; KIT(V559D), 10 µM) of 32 and a remaining binding at 10 µM ([26]; c-KIT Val559Asp, best mutant, read-out: Kinome scan (% of control at 10 µM)) of 32%. It also gave a kinase inhibition [27] of 86, a kinase inhibition [28] of 83 and a kinase inhibition [29] of 100. For the same compound, the kinase inhibition [30] was 87, the kinase inhibition [31] was 100 and the kinase inhibition [32] was 100. It also gave a kinase inhibition [33] of 100, a kinase inhibition [34] of 100 and a kinase inhibition [35] of 100. The “remaining binding (% of control)” value ([36]; 10 µM) was 22, the remaining binding at 10 µM ([36]; read-out: % Of control) was 22% and the kinase inhibition [37] was 42. The kinase inhibition [38] was 95, the kinase inhibition [39] was 100 and the kinase inhibition [40] was 89. It also gave a kinase inhibition [41] of 90, a kinase inhibition [42] of 100 and a kinase inhibition [43] of 86.
